According to the SangsterLogP compilation:

Experiment: method code SF-AS, from DOI: 10.1016/s0006-291x(89)80063-4, PMID: 2916990
Settings: pH 7.5

logD	Compound
-0.64	[N-]=[N+]=N[C@H]1C[C@H](n2ccc(N)nc2=O)O[C@@H]1CO
-0.52	Nc1nc(N)c2ncn([C@H]3C[C@H](O)[C@@H](CO)O3)c2n1
0.24	[N-]=[N+]=N[C@H]1C[C@H](n2cnc3c(N)nc(N)nc32)O[C@@H]1CO
-0.33	[N-]=[N+]=N[C@H]1C[C@H](n2cnc3c(=O)[nH]c(N)nc32)O[C@@H]1CO
0.08	Nc1ncnc2c1ncn2[C@H]1C[C@H](F)[C@@H](CO)O1
0.05	Nc1nc(N)c2ncn([C@H]3CC(F)[C@@H](CO)O3)c2n1 (stereo partly specified)
-1.01	Nc1nc2c(ncn2[C@H]2CC[C@@H](CO)O2)c(=O)[nH]1
0.35	[N-]=[N+]=N[C@H]1C[C@H](n2cnc3c(N)ncnc32)O[C@@H]1CO
-0.66	Nc1nc2c(ncn2[C@H]2C[C@H](F)[C@@H](CO)O2)c(=O)[nH]1

The remaining lines, values behind:

Compound	logD
O=c1[nH]c(=O)n([C@H]2C[C@H](F)[C@@H](CO)O2)cc1Br	-0.04
O=c1ccn([C@H]2C=C[C@@H](CO)O2)c(=O)[nH]1	-1.07
O=c1[nH]c(=O)n([C@H]2CC[C@@H](CO)O2)cc1Cl	-1.11
O=c1ccn([C@H]2C[C@H](F)[C@@H](CO)O2)c(=O)[nH]1	-0.49
O=c1ccn([C@H]2C[C@H](O)[C@@H](CO)O2)c(=O)[nH]1	-1.51
O=c1[nH]c(=O)n([C@H]2C[C@H](F)[C@@H](CO)O2)cc1Cl	-0.17
Nc1nc2c(ncn2[C@H]2C=C[C@@H](CO)O2)c(=O)[nH]1	-1.21
O=c1[nH]c(=O)n([C@H]2CC[C@@H](CO)O2)cc1Br	-0.99
O=c1ccn(C2CCC(CO)O2)c(=O)[nH]1 (stereo unspecified)	-0.89
O=c1[nH]c(=O)n([C@H]2CC[C@@H](CO)O2)cc1I	-0.61
[N-]=[N+]=N[C@@H]1[C@H](N=[N+]=[N-])[C@@H](CO)O[C@H]1n1cnc2c(N)ncnc21	0.8
Nc1ncnc2c1ncn2[C@H]1C=C[C@@H](CO)O1	-0.36
